Laboratory results: US8603986B2, “Compounds and methods for modulating cadherin-mediated processes” (McGill University, priority 2005, dated 2013)
Marks after values point to notes of the source that are not given here.

Assays:
[1] = system: SKOV3 human ovarian cancer cells; test: Disruption of SKOV3 cell adhesion in confluent cultures; assay type: cell-based; design: key to Peptide Disrupts Adhesion of SKOV3 cells: +: yes; −: no; settings: for Peptide Disrupts Adhesion of SKOV3 cells: Table 8 summary; for effect on SKOV3 cell adhesion: confluent cultures, concentration not given
Procedure: SKOV3 human ovarian cancer cells (kind gift from Dr. Riaz Farookhi, McGill University, Montreal, Quebec) were cultured in MEM containing 1.25 μg/ml Fungizone, 100 U/ml penicillin 100 μg/ml streptomycin, 0.1 mM nonessential amino acids, 2 mM L-glutamine, 10 μg/ml ml gentamicin and 10% fetal bovine serum. All culture reagents were purchased from GIBCO (Burlington, ON). To obtain confluent cell cultures, 100,000 cells per well were plated onto a 4 well slide (NalgeNunc, Naperville, Ill.) and incubated for 24 h at 37° C., in a humidified atmosphere (5% CO2).
Depending on their solubility, peptides were dissolved directly in culture medium and added to confluent cell cultures at the indicated concentration, or they were dissolved in dimethylformamide (DMF) to obtain a 100× concentrated solution or in water to obtain a 10× concentrated solution. The peptide stock solutions were further diluted with culture medium to a final working concentration and added to confluent cell cultures. Culture medium containing 1% solvent was used as a control. At the end of the treatment, cells were either examined by phase contrast microscopy, or fixed with 4% paraformaldehyde in PBS and stained with hematoxylin prior to light microscopic examination.
Confluent cultures of SKOV3 cells were incubated in the presence of individual peptides.

[2] = target: T1, N-cadherin/Fc chimeric protein (Homo sapiens, UniProt P19022); test: Cadherin/Fc binding assay: phage ELISA on N-cadherin/Fc; design: key to ELISA Phage Binding to N-Cadherin/Fc Chimeric Protein 1.2 mM calcium / ELISA Phage Binding to N-Cadherin/Fc Chimeric Protein 2 mM EDTA / ELISA Phage Binding to Cadherin/Fc Chimeric Proteins N−: +: Phage bound to the chimeric protein; −: No phage bound to the chimeric protein
T1 construct: extracellular domain of human N-cadherin (Asp160-Ala724); purchased R&D Systems, Minneapolis, Minn
T1 sequence (P19022 160-724): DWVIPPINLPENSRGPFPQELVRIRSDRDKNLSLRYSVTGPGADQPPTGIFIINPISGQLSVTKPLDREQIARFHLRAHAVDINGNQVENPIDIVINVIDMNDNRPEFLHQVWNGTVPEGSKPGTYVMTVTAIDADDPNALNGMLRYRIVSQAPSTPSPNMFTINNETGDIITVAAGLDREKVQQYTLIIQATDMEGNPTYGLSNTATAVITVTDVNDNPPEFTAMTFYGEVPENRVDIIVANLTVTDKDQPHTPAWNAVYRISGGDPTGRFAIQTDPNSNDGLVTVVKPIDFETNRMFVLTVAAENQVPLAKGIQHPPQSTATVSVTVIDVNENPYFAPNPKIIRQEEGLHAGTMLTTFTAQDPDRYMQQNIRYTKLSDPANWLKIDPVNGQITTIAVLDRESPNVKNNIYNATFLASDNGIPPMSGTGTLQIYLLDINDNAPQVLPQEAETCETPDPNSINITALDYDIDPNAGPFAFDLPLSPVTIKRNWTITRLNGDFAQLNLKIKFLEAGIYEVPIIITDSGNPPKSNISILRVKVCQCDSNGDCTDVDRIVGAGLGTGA
Text: (§1) The peptide libraries, Ph.D.-C7C™ and Ph.D.-12™ (New England BioLabs) were used in this study. These libraries are composed of 2×10^9 randomized 7 amino acid sequences flanked by cysteine residues and linear 12 amino acid sequences, respectively. The amino acid sequences are incorporated into the minor coat protein, pIII, of M13 phage. The N-cadherin/Fc chimeric protein (R&D Systems, Minneapolis, Minn.) consists of the extracellular domain of human N-cadherin (Asp160-Ala724) and the Fc region of human IgG1. The E-cadherin/Fc chimeric protein (R&D Systems, Minneapolis, Minn.) consists of the extracellular domain of human E-cadherin (Asp155-Ile707) and the Fc region of human IgG1.
The binding of each clone to the cadherin/Fc chimeric proteins was confirmed by ELISA. Wells of ProBind microtiter plates (Falcon) were coated with either N-cadherin/Fc or E-cadherin/Fc chimeric protein (100 ng/well) or human IgG1 (which contains the Fc fragment) (100 ng/well). […] Non-coated wells were also used to exclude any phage that bound to the plastic surface. […] M13 phage without any insert were used to control the non-specific binding of the phage itself to the target. […] […] Horseradish peroxidase substrate, TMB (Sigma), was added to each well (100 μl/well and after color development the reaction was stopped by addition of 100 μl 0.5 M sulphuric acid to each well. The intensity of the color was measured at 450 nm.
(§2) The phage clones shown to bind to the N-cadherin/Fc chimeric protein by ELISA were also evaluated for their ability to bind to E-cadherin/Fc and VE-cadherin/Fc chimeric proteins. The phage clones shown to bind to the E-cadherin/Fc chimeric protein by ELISA were also evaluated for their ability to bind to N-cadherin/Fc and VE-cadherin/Fc chimeric proteins. The same ELISA protocol described in the previous section was used to perform this evaluation with the exception that the wells were coated with either 100 ng N-cadherin/Fc, E-cadherin/Fc or VE-cadherin/Fc chimeric protein (R&D Systems, Minneapolis, Minn.).

[3] = target: T2, E-cadherin/Fc chimeric protein (Homo sapiens, UniProt P12830); test: Cadherin/Fc binding assay: phage ELISA on E-cadherin/Fc; design: key: +: Phage bound to the chimeric protein; −: No phage bound to the chimeric protein
T2 construct: extracellular domain of human E-cadherin (Asp155-Ile707); purchased R&D Systems, Minneapolis, Minn
T2 sequence (P12830 155-707): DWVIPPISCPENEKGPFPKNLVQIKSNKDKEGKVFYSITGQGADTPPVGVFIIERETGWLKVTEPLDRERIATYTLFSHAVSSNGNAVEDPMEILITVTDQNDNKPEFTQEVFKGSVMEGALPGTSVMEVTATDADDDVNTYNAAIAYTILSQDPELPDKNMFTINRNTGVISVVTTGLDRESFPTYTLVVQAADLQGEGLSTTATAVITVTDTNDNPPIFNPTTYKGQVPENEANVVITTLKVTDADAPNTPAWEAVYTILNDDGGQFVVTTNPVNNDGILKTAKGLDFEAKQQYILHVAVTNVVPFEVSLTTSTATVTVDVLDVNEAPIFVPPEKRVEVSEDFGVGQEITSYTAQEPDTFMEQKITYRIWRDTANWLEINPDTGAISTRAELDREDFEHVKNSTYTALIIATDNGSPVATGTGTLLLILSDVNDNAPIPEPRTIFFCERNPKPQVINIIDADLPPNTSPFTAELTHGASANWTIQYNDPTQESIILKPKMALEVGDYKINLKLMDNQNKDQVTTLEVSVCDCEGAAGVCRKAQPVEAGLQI
Text: as §1
(§3) The binding of each clone to the cadherin/Fc chimeric proteins was confirmed by ELISA. Wells of ProBind microtiter plates (Falcon) were coated with either N-cadherin/Fc or E-cadherin/Fc chimeric protein (100 ng/well) or human IgG1 (which contains the Fc fragment) (100 ng/well). After blocking the nonspecific sites with TBS containing 3% BSA and 1.2 mM CaCl2 for 1 h at 37° C., phage clones (10^9 pfu) diluted in TBST containing 3% BSA and 1.2 mM CaCl2 (100 μl/well). Non-coated wells were also used to exclude any phage that bound to the plastic surface. After 1 h incubation at room temperature, wells were washed 3 times with TBST containing 3% BSA and 1.2 mM CaCl2. M13 phage without any insert were used to control the non-specific binding of the phage itself to the target. Monoclonal anti-M13 antibody conjugated to horseradish peroxidase (Amersham Biosciences, Piscataway, N.J.) was diluted in TBST containing 3% BSA and 1.2 mM CaCl2 (1:2,000) and added to each well (100 μl/well). After 1 h incubation at room temperature, wells were washed three times with TBST containing 3% BSA and 1.2 mM CaCl2 and once with TBS containing 1.2 mM CaCl2. Horseradish peroxidase substrate, TMB (Sigma), was added to each well (100 μl/well and after color development the reaction was stopped by addition of 100 μl 0.5 M sulphuric acid to each well. The intensity of the color was measured at 450 nm.
as §2

[4] = target: T3, VE-cadherin/Fc chimeric protein (Homo sapiens, UniProt P33151); test: Cadherin specificity: phage ELISA on VE-cadherin/Fc; assay type: binding; design: key: +: Phage bound to the chimeric protein; −: No phage bound to the chimeric protein
T3 construct: purchased R&D Systems, Minneapolis, Minn
T3 sequence (P33151 with tags, fused parts or gaps limits assumed, species assumed): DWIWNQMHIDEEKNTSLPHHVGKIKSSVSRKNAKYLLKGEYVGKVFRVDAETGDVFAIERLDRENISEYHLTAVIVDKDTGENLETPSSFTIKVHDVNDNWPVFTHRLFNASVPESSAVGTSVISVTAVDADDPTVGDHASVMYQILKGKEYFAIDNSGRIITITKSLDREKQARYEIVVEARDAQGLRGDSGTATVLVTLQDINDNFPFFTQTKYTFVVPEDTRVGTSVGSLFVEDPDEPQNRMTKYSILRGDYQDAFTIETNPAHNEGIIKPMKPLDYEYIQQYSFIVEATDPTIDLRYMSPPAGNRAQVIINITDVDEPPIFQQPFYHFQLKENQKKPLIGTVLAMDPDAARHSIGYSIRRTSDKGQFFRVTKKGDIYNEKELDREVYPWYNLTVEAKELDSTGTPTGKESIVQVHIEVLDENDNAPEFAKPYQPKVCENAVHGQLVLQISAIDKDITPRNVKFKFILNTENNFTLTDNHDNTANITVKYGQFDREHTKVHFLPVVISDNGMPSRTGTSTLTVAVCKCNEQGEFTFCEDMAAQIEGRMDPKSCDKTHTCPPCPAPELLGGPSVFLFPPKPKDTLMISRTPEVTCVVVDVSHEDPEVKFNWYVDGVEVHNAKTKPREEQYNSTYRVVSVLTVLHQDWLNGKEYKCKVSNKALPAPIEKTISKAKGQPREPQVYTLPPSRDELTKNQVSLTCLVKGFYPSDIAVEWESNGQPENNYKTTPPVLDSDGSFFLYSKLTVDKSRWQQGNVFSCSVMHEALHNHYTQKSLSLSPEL
Procedure: as §3, §2

[5] = Table 6, Ph.D.-C7C clones selected on E-cadherin/Fc
[6] = Table 4, Ph.D.-12 library clones
[7] = Table 2, Ph.D.-C7C library clones
[8] = Table 7, Ph.D.-12 clones selected on E-cadherin/Fc

## H-AELRVSSP-NH2 [reference compound]
[1]
  Peptide Disrupts Adhesion of SKOV3 cells: −
  effect on SKOV3 cell adhesion: had no biological activity

## WQFCYAQHC [Ec 2]
[2]; [5]
  ELISA Phage Binding to Cadherin/Fc Chimeric Proteins N−: +
[3]; [5]
  ELISA Phage Binding to Cadherin/Fc Chimeric Proteins E−: +
[4]; [5]
  ELISA Phage Binding to Cadherin/Fc Chimeric Proteins VE−: −

## SWLAVWPATGAS [Nc 12-a10]
[2]; [6]
  ELISA Phage Binding to N-Cadherin/Fc Chimeric Protein 1.2 mM calcium: +
  ELISA Phage Binding to N-Cadherin/Fc Chimeric Protein 2 mM EDTA: +
[3]; [6]
  ELISA Phage Binding to Cadherin/Fc Chimeric Proteins E−: +
[4]; [6]
  ELISA Phage Binding to Cadherin/Fc Chimeric Proteins VE−: −

## WQMVLCPAC [Ec 4]
[2]; [5]
  ELISA Phage Binding to Cadherin/Fc Chimeric Proteins N−: +
[3]; [5]
  ELISA Phage Binding to Cadherin/Fc Chimeric Proteins E−: +
[4]; [5]
  ELISA Phage Binding to Cadherin/Fc Chimeric Proteins VE−: −

## WEFSICETC [Nc 5]
[2]; [7]
  ELISA Phage Binding to N-Cadherin/Fc Chimeric Protein 1.2 mM calcium: +
  ELISA Phage Binding to N-Cadherin/Fc Chimeric Protein 2 mM EDTA: −
[3]; [7]
  ELISA Phage Binding to Cadherin/Fc Chimeric Proteins E−: −
[4]; [7]
  ELISA Phage Binding to Cadherin/Fc Chimeric Proteins VE−: −

## WTVCPIGNC [Nc 8]
[2]; [7]
  ELISA Phage Binding to N-Cadherin/Fc Chimeric Protein 1.2 mM calcium: +
  ELISA Phage Binding to N-Cadherin/Fc Chimeric Protein 2 mM EDTA: −
[3]; [7]
  ELISA Phage Binding to Cadherin/Fc Chimeric Proteins E−: −
[4]; [7]
  ELISA Phage Binding to Cadherin/Fc Chimeric Proteins VE−: −

## WLQPYFPSY [Nc 1]
[2]
  phage binding to N-cadherin/Fc chimeric protein by ELISA: positive ELISA signal
[2]; [7]
  ELISA Phage Binding to N-Cadherin/Fc Chimeric Protein 1.2 mM calcium: +*
  ELISA Phage Binding to N-Cadherin/Fc Chimeric Protein 2 mM EDTA: −**
[3]; [7]
  ELISA Phage Binding to Cadherin/Fc Chimeric Proteins E−: −
[4]; [7]
  ELISA Phage Binding to Cadherin/Fc Chimeric Proteins VE−: −

## QWTITYPKPPAL [Ec 12-13]
[2]; [8]
  ELISA Phage Binding to Cadherin/Fc Chimeric Proteins N−: +
[3]; [8]
  ELISA Phage Binding to Cadherin/Fc Chimeric Proteins E−: +
[4]; [8]
  ELISA Phage Binding to Cadherin/Fc Chimeric Proteins VE−: −

## WELCVSSSC [Nc 25]
[2]; [7]
  ELISA Phage Binding to N-Cadherin/Fc Chimeric Protein 1.2 mM calcium: +
  ELISA Phage Binding to N-Cadherin/Fc Chimeric Protein 2 mM EDTA: −
[3]; [7]
  ELISA Phage Binding to Cadherin/Fc Chimeric Proteins E−: −
[4]; [7]
  ELISA Phage Binding to Cadherin/Fc Chimeric Proteins VE−: −

## WEVRLTEKC [Nc a3]
[2]; [7]
  ELISA Phage Binding to N-Cadherin/Fc Chimeric Protein 1.2 mM calcium: +
  ELISA Phage Binding to N-Cadherin/Fc Chimeric Protein 2 mM EDTA: −
[3]; [7]
  ELISA Phage Binding to Cadherin/Fc Chimeric Proteins E−: −
[4]; [7]
  ELISA Phage Binding to Cadherin/Fc Chimeric Proteins VE−: −

## SWTLYTPSGQSK [Nc 12-04]
[2]; [6]
  ELISA Phage Binding to N-Cadherin/Fc Chimeric Protein 1.2 mM calcium: +
  ELISA Phage Binding to N-Cadherin/Fc Chimeric Protein 2 mM EDTA: −
[3]; [6]
  ELISA Phage Binding to Cadherin/Fc Chimeric Proteins E−: −
[4]; [6]
  ELISA Phage Binding to Cadherin/Fc Chimeric Proteins VE−: −

## H-RYVCVGAH-NH2 [reference compound]
[1]
  Peptide Disrupts Adhesion of SKOV3 cells: −
  effect on SKOV3 cell adhesion: had no effect on cell adhesion

## WHTSWSDTY [Nc 19]
[2]; [7]
  ELISA Phage Binding to N-Cadherin/Fc Chimeric Protein 1.2 mM calcium: +
  ELISA Phage Binding to N-Cadherin/Fc Chimeric Protein 2 mM EDTA: −
[3]; [7]
  ELISA Phage Binding to Cadherin/Fc Chimeric Proteins E−: −
[4]; [7]
  ELISA Phage Binding to Cadherin/Fc Chimeric Proteins VE−: −

## WELVQCLTC [Ec 1]
[2]; [5]
  ELISA Phage Binding to Cadherin/Fc Chimeric Proteins N−: +
[3]; [5]
  ELISA Phage Binding to Cadherin/Fc Chimeric Proteins E−: +
[4]; [5]
  ELISA Phage Binding to Cadherin/Fc Chimeric Proteins VE−: −

## QWEIRYPWPSMG [Ec 12-a1]
[2]; [8]
  ELISA Phage Binding to Cadherin/Fc Chimeric Proteins N−: +
[3]; [8]
  ELISA Phage Binding to Cadherin/Fc Chimeric Proteins E−: +
[4]; [8]
  ELISA Phage Binding to Cadherin/Fc Chimeric Proteins VE−: −

## WTFNFCTAC [Ec a5]
[2]; [5]
  ELISA Phage Binding to Cadherin/Fc Chimeric Proteins N−: +
[3]; [5]
  ELISA Phage Binding to Cadherin/Fc Chimeric Proteins E−: +
[4]; [5]
  ELISA Phage Binding to Cadherin/Fc Chimeric Proteins VE−: −

## WLQPYFPSY [Nc a5]
[2]; [7]
  ELISA Phage Binding to N-Cadherin/Fc Chimeric Protein 1.2 mM calcium: +
  ELISA Phage Binding to N-Cadherin/Fc Chimeric Protein 2 mM EDTA: −
[3]; [7]
  ELISA Phage Binding to Cadherin/Fc Chimeric Proteins E−: −
[4]; [7]
  ELISA Phage Binding to Cadherin/Fc Chimeric Proteins VE−: −

## SWELYYPLRANL [Ec 12-a2]
[2]; [8]
  ELISA Phage Binding to Cadherin/Fc Chimeric Proteins N−: +
[3]; [8]
  ELISA Phage Binding to Cadherin/Fc Chimeric Proteins E−: +
[4]; [8]
  ELISA Phage Binding to Cadherin/Fc Chimeric Proteins VE−: −
